These results are taken from paper PMC6522510 (Nature Communications, 2019).

Test [1] deals with M07e. Kind of test: cells. The arrangement: species or system AML cell lines (8); Secondary HTS, 10-point dose-response in triplicate, Cell Titer Glo viability, four-parameter fit EC50. The following applies: M-07e, 72 h, read-out: M07e.
The subject of test [2] is CMK. The experiment in a line: Secondary dose-response HTS, Cell Titer Glo. Format: cell-based, human. To be noted: Homo sapiens; secondary high-throughput screen; CMK; read-out: average effective concentration, CMK. On the technique in general: Cellular ATP, detected with luciferase, serves as a proxy for viable cell number.
The subject of test [3] is CMS. The experiment in a line: Secondary dose-response HTS, Cell Titer Glo. Format: cell-based, human. The following applies: Homo sapiens, HTS; secondary high-throughput screen; CMS; read-out: average effective concentration, CMS.
Test [4] deals with MV4-11. The experiment in a line: cells. Details: species or system AML cell lines (8); Secondary HTS, 10-point dose-response in triplicate, Cell Titer Glo viability, four-parameter fit EC50. To be noted: Homo sapiens, MV4-11, 72 h, read-out: MV4-11.
The subject of test [5] is U937. Kind of test: cells. The following applies: Homo sapiens, U-937, 72 h, read-out: U937. Details: species or system AML cell lines (8); Secondary HTS, 10-point dose-response in triplicate, Cell Titer Glo viability, four-parameter fit EC50.
Test [6] deals with CHRF288-11. Kind of test: cells. The arrangement: species or system AML cell lines (8); Secondary HTS, 10-point dose-response in triplicate, Cell Titer Glo viability, four-parameter fit EC50. The following applies: 72 h, read-out: CHRF288-11.
The test system of test [7] is ML-2. Kind of test: cells. The arrangement: species or system AML cell lines (8); Secondary HTS, 10-point dose-response in triplicate, Cell Titer Glo viability, four-parameter fit EC50. The following applies: Homo sapiens, ML-2, 72 h, read-out: ML-2.
Test [8] relates to MOLM-13. The experiment in a line: cells. Details: species or system AML cell lines (8); Secondary HTS, 10-point dose-response in triplicate, Cell Titer Glo viability, four-parameter fit EC50. The following applies: Homo sapiens, MOLM-13, 72 h, read-out: MOLM-13.
Test [9] has as its system CMK. Kind of test: cells. The arrangement: species or system AML cell lines (8); Secondary HTS, 10-point dose-response in triplicate, Cell Titer Glo viability, four-parameter fit EC50. The following applies: Homo sapiens, CMK, 72 h, read-out: CMK.
For test [10], the system named is MV4-11. The experiment in a line: Secondary dose-response HTS, Cell Titer Glo. The format is cell-based, human. The following applies: Homo sapiens; secondary high-throughput screen; MV4-11; read-out: average effective concentration, MV4-11.
In test [11] the test system is CMS. The experiment in a line: cells. The arrangement: species or system AML cell lines (8); Secondary HTS, 10-point dose-response in triplicate, Cell Titer Glo viability, four-parameter fit EC50. The following applies: 72 h, read-out: CMS.
Test [12] deals with CMK. The arrangement: species or system AML cell lines (8); Primary HTS, single concentration about 10 uM, Cell Titer Glo viability; log10 luminescence, per cent inhibition relative to cycloheximide control. To be noted: 72 h, relative to cycloheximide control, log10 luminescence; inhibitor.
Test [13] deals with MOLM-13. The arrangement: species or system AML cell lines (8); Primary HTS, single concentration about 10 uM, Cell Titer Glo viability; log10 luminescence, per cent inhibition relative to cycloheximide control. To be noted: 72 h, relative to cycloheximide control, log10 luminescence; inhibitor.
Test [14] concerns ML-2. Details: species or system AML cell lines (8); Primary HTS, single concentration about 10 uM, Cell Titer Glo viability; log10 luminescence, per cent inhibition relative to cycloheximide control. To be noted: 72 h, relative to cycloheximide control, log10 luminescence; inhibitor.
The subject of test [15] is M07e. The arrangement: species or system AML cell lines (8); Primary HTS, single concentration about 10 uM, Cell Titer Glo viability; log10 luminescence, per cent inhibition relative to cycloheximide control. The following applies: 72 h, relative to cycloheximide control, log10 luminescence; inhibitor.
The test system of test [16] is CMS. The arrangement: species or system AML cell lines (8); Primary HTS, single concentration about 10 uM, Cell Titer Glo viability; log10 luminescence, per cent inhibition relative to cycloheximide control. The following applies: 72 h, relative to cycloheximide control, log10 luminescence; inhibitor.
Test [17] deals with MV4-11. Details: species or system AML cell lines (8); Primary HTS, single concentration about 10 uM, Cell Titer Glo viability; log10 luminescence, per cent inhibition relative to cycloheximide control. The following applies: 72 h, relative to cycloheximide control, log10 luminescence; inhibitor.
Test [18] relates to U937. The arrangement: species or system AML cell lines (8); Primary HTS, single concentration about 10 uM, Cell Titer Glo viability; log10 luminescence, per cent inhibition relative to cycloheximide control. The following applies: 72 h, relative to cycloheximide control, log10 luminescence; inhibitor.
Test [19] has as its system CHRF288-11. Details: species or system AML cell lines (8); Primary HTS, single concentration about 10 uM, Cell Titer Glo viability; log10 luminescence, per cent inhibition relative to cycloheximide control. The following applies: 72 h, relative to cycloheximide control, log10 luminescence; inhibitor.

As to `Cc1cc(Nc2nc(N[C@@H](C)c3ncc(F)cn3)ncc2Cl)n[nH]1` [AZD1480], the EC50 with M07e [1] was > 10 µM; with CMK [2], > 10 µM; in the test with CMS [3], 3.3 µM; with MV4-11 [4], > 10 µM; in the test with U937 [5], > 10 µM; in the test on CHRF288-11 [6] it was > 10 µM. Also, the EC50 with ML-2 [7] and in the test with MOLM-13 [8] was > 10 µM throughout.

As for `O=c1[nH]cc(F)c(=O)[nH]1` [Compound 5-FLUOROURACIL], the EC50 in the test on M07e [1], in the test on CMK [9], in the test on MV4-11 [10], in the test on CMS [11], with U937 [5] and in the test with CHRF288-11 [6] was > 10 µM in each case. Moreover, the EC50 with ML-2 [7] and with MOLM-13 [8] was > 10 µM in each case.

Consider `NC(=O)[C@@H](CCC(F)(F)F)N(Cc1ccc(-c2ncon2)cc1F)S(=O)(=O)c1ccc(Cl)cc1` [BMS-708163], for which the EC50 in the test on M07e [1], in the test on CMK [9], in the test with MV4-11 [10], in the test on CMS [11], with U937 [5] and in the test on CHRF288-11 [6] was > 10 µM in each case. For the same compound, the EC50 in the test with ML-2 [7] and in the test with MOLM-13 [8] was > 10 µM throughout.

In the case of `COc1cc2nccc(Oc3ccc(NC(=O)Nc4cc(C)on4)c(Cl)c3)c2cc1OC` [TIVOZANIB], the EC50 in the test on M07e [1] is > 10 µM; with CMK [9], > 10 µM; in the test with MV4-11 [10], 7.8 µM; in the test with CMS [11], > 10 µM; in the test on U937 [5], > 10 µM; in the test with CHRF288-11 [6], > 10 µM. Further, the EC50 with ML-2 [7] and with MOLM-13 [8] was > 10 µM in each case.

Turning to `C[C@]1(O)C[C@@H](c2nc(-c3ccc4ccc(-c5ccccc5)nc4c3)c3c(N)nccn32)C1` [LINSITINIB], the EC50 in the test on M07e [1], in the test on CMK [9], with MV4-11 [10], with CMS [11], with U937 [5] and in the test with CHRF288-11 [6] was > 10 µM throughout. Moreover, the EC50 with ML-2 [7] and with MOLM-13 [8] was > 10 µM throughout. The CMK %inh in the test with CMK [12] was found to be 18.57%. For the same compound, in the test on MOLM-13 [13], the MOLM-13 %inh is 2.501%. The same compound yielded an ML-2 %inh with ML-2 [14] of 11.6%. Also, the M07e %inh in the test with M07e [15] came to 2.638%. The CMS %inh with CMS [16] is listed as 2.626%. Besides, the MV4-11 %inh with MV4-11 [17] came out at 7.816%. In the test on U937 [18], the U937 %inh was 2.082%. The compound also showed a CHRF288-11 %inh in the test with CHRF288-11 [19] of 34.61%.

Regarding `CO[C@H]1C[C@@H]2CC[C@@H](C)[C@@](O)(O2)C(=O)C(=O)N2CCCC[C@H]2C(=O)O[C@H]([C@H](C)C[C@@H]2CC[C@@H](OC(=O)C(C)(CO)CO)[C@H](OC)C2)CC(=O)[C@H](C)/C=C(\C)[C@@H](O)[C@@H](OC)C(=O)[C@H](C)C[C@H](C)/C=C/C=C/C=C/1C` [TEMSIROLIMUS], the EC50 in the test on M07e [1], in the test on CMK [9], in the test on CMS [11], in the test with MV4-11 [4], in the test on U937 [5] and with CHRF288-11 [6] was > 10 µM each time. Moreover, the EC50 with ML-2 [7] and with MOLM-13 [8] was > 10 µM in each case.

Regarding `Oc1cccc(-c2nc(N3CCOCC3)c3oc4ncccc4c3n2)c1` [SJ000574285, PIK 103], the EC50 in the test on M07e [1] is > 10 µM; in the test on CMK [9], 3.2 µM; in the test with CMS [11], > 10 µM; in the test with MV4-11 [4] it was 1.5 µM; in the test on U937 [5], 0.41 µM; in the test on CHRF288-11 [6], > 10 µM. The EC50 was > 10 µM in the test with ML-2 [7] and 0.94 µM with MOLM-13 [8].

`C/C(=C\C(=O)Nc1ccccc1C(=O)O)c1ccc2ccccc2c1` [SJ000565230, BIBR-1532]: the EC50 is > 10 µM in the test on M07e [1]; > 10 µM in the test on CMK [9]; > 10 µM in the test with CMS [11]; > 10 µM in the test on MV4-11 [4]; > 10 µM in the test with U937 [5]; 5 µM with CHRF288-11 [6]. The EC50 in the test on ML-2 [7] was > 10 µM; in the test on MOLM-13 [8], 7.7 µM.

As to `CC(C)n1c(/C=C/C(O)CC(O)CC(=O)O)c(-c2ccc(F)cc2)c2ccccc21` (centres unmarked) [FLUVASTATIN], the EC50 with M07e [1], with CMK [9], with CMS [11], with MV4-11 [4], in the test on U937 [5] and in the test with CHRF288-11 [6] was > 10 µM throughout. Moreover, the EC50 with ML-2 [7] and with MOLM-13 [8] was > 10 µM throughout.

Take `CNC(=O)c1c(F)cccc1Nc1nc(Nc2cc3c(ccn3C(=O)CN(C)C)cc2OC)nc2[nH]ccc12` [SJ000821585, GSK1838705A]: the EC50 in the test on M07e [1] was > 10 µM; with CMK [9], 5.8 µM; with CMS [11], > 10 µM; in the test on MV4-11 [4], > 10 µM; with U937 [5] it was 6.2 µM; with CHRF288-11 [6] it was > 10 µM. Further, the EC50 with ML-2 [7] and with MOLM-13 [8] was > 10 µM throughout.

With `NC(=O)C1CCCc2c1[nH]c1ccc(Cl)cc21` (centres unmarked) [SJ000784267], the EC50 with M07e [1], in the test on CMK [9], with CMS [11], with MV4-11 [4], with U937 [5] and in the test with CHRF288-11 [6] was > 10 µM each time. In addition, the EC50 with ML-2 [7] and in the test on MOLM-13 [8] was > 10 µM in each case.

In the case of `COc1ccc(C[C@H](NC(=O)[C@H](C)NC(=O)CN2CCOCC2)C(=O)N[C@@H](Cc2ccccc2)C(=O)C2(C)CO2)cc1` (stereo in doubt) [SJ000834147, ONX-0914], the EC50 in the test with M07e [1] is 0.0789 µM; in the test with CMK [9], 0.23 µM; in the test on CMS [11] it was 0.11 µM; with MV4-11 [4], 0.046 µM; with U937 [5] it was 0.134 µM; in the test with CHRF288-11 [6] it was 0.169 µM. In addition, the EC50 in the test with ML-2 [7] was 0.0426 µM; in the test with MOLM-13 [8], 0.0727 µM.

For `CC1=C(/C=C/C(C)=C/C=C/C(C)=C/C(=O)O)C(C)(C)CCC1` [TRETINOIN], the EC50 in the test on M07e [1], in the test on CMK [9], with CMS [11], with MV4-11 [4], with U937 [5] and with CHRF288-11 [6] was > 10 µM throughout. Further, the EC50 in the test on ML-2 [7] and in the test on MOLM-13 [8] was > 10 µM in each case.

With `C=C1CCCC2(C)C[C@H]3OC(=O)C(=C)[C@H]3CC12` (stereo in doubt) [SJ000834159, ISOHELENIN], the EC50 in the test with M07e [1] was > 10 µM; in the test with CMK [9], 5.2 µM; with CMS [11] it was 5.4 µM; with MV4-11 [4], > 10 µM; with U937 [5], 8.2 µM; with CHRF288-11 [6], 6.7 µM. Also, the EC50 in the test on ML-2 [7] was 6.6 µM; in the test with MOLM-13 [8] it was 5.9 µM.

As for `CC(C)NCCCn1c(Sc2cc3c(cc2I)OCO3)nc2c(N)ncnc21` [SJ000821568, PU-H71], the EC50 in the test on M07e [1] was > 10 µM; in the test on CMK [9], 0.024 µM; in the test on CMS [11] it was 0.18 µM; in the test on MV4-11 [4], 0.023 µM; with U937 [5] it was > 10 µM; with CHRF288-11 [6], 0.17 µM. In addition, the EC50 stood at 0.082 µM with ML-2 [7] and 0.019 µM with MOLM-13 [8].
